Test results published in PMC6385358, “Discovery of ((1,2,4-oxadiazol-5-yl)pyrrolidin-3-yl)ureidyl derivatives as selective non-steroidal agonists of the G-protein coupled bile acid receptor-1” (Scientific Reports, 2019).

Legend:
Details in all cases: 10 μM
LXRβ = target: T1, LXRβ (Homo sapiens, UniProt P55055); assay: Luciferase reporter specificity assay versus LXRβ on HepG2 cells; type: cell-based
T1 construct: host or cells: HepG2
T1 sequence (P55055 1-460): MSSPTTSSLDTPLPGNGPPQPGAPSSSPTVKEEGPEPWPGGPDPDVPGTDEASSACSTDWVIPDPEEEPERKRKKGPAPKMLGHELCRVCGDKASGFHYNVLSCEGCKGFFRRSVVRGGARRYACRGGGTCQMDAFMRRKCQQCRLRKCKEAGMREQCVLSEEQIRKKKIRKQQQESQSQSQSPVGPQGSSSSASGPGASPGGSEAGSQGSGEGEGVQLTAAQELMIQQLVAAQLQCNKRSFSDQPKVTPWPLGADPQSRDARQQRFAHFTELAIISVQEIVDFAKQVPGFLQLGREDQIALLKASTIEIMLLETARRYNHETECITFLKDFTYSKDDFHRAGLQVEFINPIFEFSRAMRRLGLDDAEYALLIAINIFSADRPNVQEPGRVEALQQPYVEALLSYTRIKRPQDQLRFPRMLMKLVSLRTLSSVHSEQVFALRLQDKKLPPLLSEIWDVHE
Protocol: (§1) The activity of compounds 1–14 on GPBAR1 was evaluated in a luciferase reporter assay using HEK-293T cells transfected with GPBAR1. The efficacy of tested compounds (Table 1) was measured using taurolithocholic acid (TLCA) as GPBAR1 reference compound[10],[11]. Each compound was tested at the concentration of 10 μM and transactivation activity of TLCA on a cAMP responsive element (CRE) (i.e. TGR5/GPBAR1) was considered equal to 100%. […] Thus, 9 and 10 (Table 1) turned out to be the most promising derivatives considering their low EC50 values and high activity efficacy. To further characterize the pharmacological properties of these compounds, we expanded their in vitro profile to common off-targets for bile acid receptor ligands.
(§2) Figure 3 (A) Dose response curves of compounds 9 and 10 (concentrations ranging from 1 to 50 µM) in luciferase reporter assay. (B) Real-time PCR analysis of mRNA expression of Pro-glucagon in GLUTag cells treated with compounds 9 and 10 at 10 μM, and TLCA used as a positive control (10 μM). Values are normalized to GAPDH and are expressed relative to those of not treated cells (NT) which are arbitrarily settled to 1. The relative mRNA expression is expressed as 2^(−ΔΔCt). […]
(§3) The specificity of compounds 9 and 10 versus PPARα, PPARγ, LXRα, LXRβ, FXR and PXR was determined in luciferase reporter gene assays as previously reported[29],[31].

[1] = system: pro-glucagon mRNA in GLUTag cells; assay: RT-PCR of pro-glucagon mRNA expression in GLUTag cells; type: cell-based, mouse
Protocol: as §1
Figure 3 (A) Dose response curves of compounds 9 and 10 (concentrations ranging from 1 to 50 µM) in luciferase reporter assay. (B) Real-time PCR analysis of mRNA expression of Pro-glucagon in GLUTag cells treated with compounds 9 and 10 at 10 μM, and TLCA used as a positive control (10 μM). Values are normalized to GAPDH and are expressed relative to those of not treated cells (NT) which are arbitrarily settled to 1. The relative mRNA expression is expressed as 2^(−ΔΔCt). (C) Specificity of compounds 9 and 10 at 10 μM dose in luciferase reporter assays versus PPARα and PPARγ using Gemfibrozil (GEM, 10 μM) and Rosiglitazone (ROSI, 100 nM) as positive controls respectively. (D) Specificity of compounds 9 and 10 at 10 μM in luciferase reporter assays versus LXRα and LXRβ using GW3965 (GW, 10 μM) as positive control. (E) Specificity of compounds 9 and 10 at 10 μM in luciferase reporter assays versus FXR using CDCA (10 μM) as positive control; (F) Specificity of compounds 9 and 10 at 10 μM in luciferase reporter assays versus PXR using Rifaximin (Rifax, 10 μM) as positive control.
Evaluation of proglucagon mRNA expression was performed in RT-PCR on GLUTag cells (1 × 10^6 cells/well in a 6 well plate) as previously reported[34],[47]. The relative mRNA expression was calculated and expressed as 2^−(ΔΔCt). […]

LXRα = target: T2, LXRα (Homo sapiens, UniProt Q13133); assay: Luciferase reporter specificity assay versus LXRα on HepG2 cells; type: cell-based
T2 construct: host or cells: HepG2
T2 sequence (Q13133 1-447): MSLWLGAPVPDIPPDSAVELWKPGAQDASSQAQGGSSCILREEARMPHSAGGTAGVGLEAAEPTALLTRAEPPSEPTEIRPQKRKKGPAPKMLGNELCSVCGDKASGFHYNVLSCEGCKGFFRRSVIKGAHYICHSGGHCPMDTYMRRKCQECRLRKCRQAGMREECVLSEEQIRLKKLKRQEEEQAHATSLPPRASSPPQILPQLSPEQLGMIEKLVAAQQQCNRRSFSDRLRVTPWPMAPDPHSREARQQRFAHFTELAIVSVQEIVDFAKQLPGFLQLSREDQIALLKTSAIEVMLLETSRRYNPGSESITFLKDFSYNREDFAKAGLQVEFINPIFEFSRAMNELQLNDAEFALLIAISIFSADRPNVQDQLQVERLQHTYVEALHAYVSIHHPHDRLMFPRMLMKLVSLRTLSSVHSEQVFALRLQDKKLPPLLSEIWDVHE
Protocol: as §1, §2, §3

PPARα = target: T3, PPARα (Homo sapiens, UniProt Q07869); assay: Luciferase reporter specificity assay versus PPARα on HepG2 cells; type: cell-based
T3 construct: host or cells: HepG2
T3 sequence (Q07869 1-468): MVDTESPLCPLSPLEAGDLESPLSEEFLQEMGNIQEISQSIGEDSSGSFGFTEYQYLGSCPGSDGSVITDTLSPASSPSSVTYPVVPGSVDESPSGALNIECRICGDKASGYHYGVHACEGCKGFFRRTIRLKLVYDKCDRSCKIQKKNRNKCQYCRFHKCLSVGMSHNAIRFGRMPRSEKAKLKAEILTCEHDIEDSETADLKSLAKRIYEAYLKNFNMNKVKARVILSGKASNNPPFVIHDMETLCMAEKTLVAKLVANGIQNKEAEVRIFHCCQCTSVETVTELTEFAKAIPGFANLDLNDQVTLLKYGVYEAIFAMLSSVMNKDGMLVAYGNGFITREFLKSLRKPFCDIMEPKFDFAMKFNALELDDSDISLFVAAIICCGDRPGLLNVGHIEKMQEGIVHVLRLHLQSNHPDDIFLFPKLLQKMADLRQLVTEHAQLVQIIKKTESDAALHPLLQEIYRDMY
Protocol: as §1, §2, §3

SMILES	LXRβ transactivation (LXRβ)	Induction of pro-glucagon mRNA expression [1]	LXRα transactivation (LXRα)	PPARα transactivation (PPARα)	Efficacy in inducing pro-glucagon mRNA expression compared with TLCA ([1]; TLCA 10 μM)
O=C(Nc1ccc(Cl)cc1)N[C@@H]1CN[C@H](c2nc(-c3ccccc3)no2)C1 [Compound 9]	unable to induce	effective in inducing the expression of pro-glucagon mRNA	unable to induce	unable to induce	–
O=C(NC1CCCCC1)N[C@@H]1CN[C@H](c2nc(-c3ccccc3)no2)C1 [Compound 10]	unable to induce	effective in inducing the expression of pro-glucagon mRNA	unable to induce	unable to induce	same efficacy of TLCA
